What was measured:
Human Factor XIIa = Human Factor XIIa (Homo sapiens (Human), UniProt P00748); assay: Determination of FXIIa inhibition (fluorogenic substrate H-DPro-Phe-Arg-AFC, IC50 assay); format: biochemical; details: substrate H-DPro-Phe-Arg-AFC at Km, 25° C.; class scale A-G
Summary of the method: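 Human FXIIa incubated at 25° C with fluorogenic substrate H-DPro-Phe-Arg-AFC at its Km concentration and varying compound concentrations. Fluorescence release monitored over 5 min at 25° C; linear rate expressed as % of uninhibited activity to derive IC50.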

Plasma Kallikrein = Plasma Kallikrein (Homo sapiens (Human), UniProt P03952); assay: Determination of related protease inhibition: Plasma Kallikrein (fluorogenic substrate at Km); format: biochemical; details: 25° C., read-out: IC50 (human PKal)
Sequence of Plasma Kallikrein (P03952 391-638): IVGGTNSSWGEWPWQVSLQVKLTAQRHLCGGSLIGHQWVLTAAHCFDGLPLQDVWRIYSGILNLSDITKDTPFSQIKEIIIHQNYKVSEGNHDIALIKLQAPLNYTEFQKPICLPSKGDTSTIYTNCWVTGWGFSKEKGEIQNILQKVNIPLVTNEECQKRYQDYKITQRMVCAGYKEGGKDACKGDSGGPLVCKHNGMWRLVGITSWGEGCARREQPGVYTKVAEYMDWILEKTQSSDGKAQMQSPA
Sequence of Plasma Kallikrein (P03952 20-390 partner): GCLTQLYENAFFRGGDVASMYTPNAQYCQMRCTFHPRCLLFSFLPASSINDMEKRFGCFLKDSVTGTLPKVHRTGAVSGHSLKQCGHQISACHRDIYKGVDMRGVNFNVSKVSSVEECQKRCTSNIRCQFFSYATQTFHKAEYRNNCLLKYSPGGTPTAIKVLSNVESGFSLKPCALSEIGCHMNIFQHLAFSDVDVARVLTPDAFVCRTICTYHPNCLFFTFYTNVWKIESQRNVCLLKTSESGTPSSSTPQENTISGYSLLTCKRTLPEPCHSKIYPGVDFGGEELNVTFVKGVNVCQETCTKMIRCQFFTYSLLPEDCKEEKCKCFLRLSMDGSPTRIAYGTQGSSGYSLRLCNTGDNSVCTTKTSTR
Summary of the method: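 Human enzyme incubated with test compound over a concentration range and a fluorogenic substrate at its Km concentration. Liberated fluorescence monitored over 5 min at 25 °C; linear rate per minute expressed as % of uninhibited activity, and IC50 taken as the concentration giving 50% inhibition.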

Sequence of Human Factor XIIa (P00748 373-615): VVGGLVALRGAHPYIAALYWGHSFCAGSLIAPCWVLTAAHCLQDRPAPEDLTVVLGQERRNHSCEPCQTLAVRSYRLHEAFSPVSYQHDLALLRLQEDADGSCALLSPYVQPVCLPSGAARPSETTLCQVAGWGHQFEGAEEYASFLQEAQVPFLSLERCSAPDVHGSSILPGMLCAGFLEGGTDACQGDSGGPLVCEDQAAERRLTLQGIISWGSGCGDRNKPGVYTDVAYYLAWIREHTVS

IC50 (Human Factor XIIa)	IC50 (Plasma Kallikrein)	SMILES
40 to 100 µM	> 40 µM	CN1CCC(CNc2ccc(CNc3nccc4[nH]ccc34)cn2)CC1 [Example 1223, N-((6-(((1-methylpiperidin-4-yl)methyl)amino)pyridin-3-yl)methyl)-1H-pyrrolo[3,2-c]pyridin-4-amine]
0.3 to 1 µM	> 40 µM	Nc1ncc(Cl)c2cc(NCc3ccnc(OCC4CCn5cc(CO)nc5C4)c3)ccc12 (stereo not shown) [Example 4449, (7-(((4-(((1-amino-4-chloroisoquinolin-6-yl)amino)methyl)pyridin-2-yl)oxy)methyl)-5,6,7,8-tetrahydroimidazo[1,2-a]pyridin-2-yl)methanol]
0.3 to 1 µM	> 40 µM	Cc1cc2c(NCc3ccc(OCC4CCN(C)CC4)nc3)ccnc2[nH]1 [Example 1249, 2-methyl-N-((6-((1-methylpiperidin-4-yl)methoxy)pyridin-3-yl)methyl)-1H-pyrrolo[2,3-b]pyridin-4-amine]
0.1 to 0.3 µM	> 4 µM	CC(C)N1CC2CCC(C1)C2COc1cc(CNc2cccc3c(N)nccc23)ccn1 (stereo not shown) [Example 4297, N5-((2-((3-isopropyl-3-azabicyclo[3.2.1]octan-8-yl)methoxy)pyridin-4-yl)methyl)isoquinoline-1,5-diamine]
10 to 40 µM	> 40 µM	COc1ccc(NCc2ccnc(OCC3CCN(C)CC3)c2)c2ccnc(N)c12 [Example 4470, 8-methoxy-N5-((2-((1-methylpiperidin-4-yl)methoxy)pyridin-4-yl)methyl)isoquinoline-1,5-diamine]
3 to 10 µM	> 40 µM	Nc1nccc2c(NCc3ccc(N4CCn5ncc(O)c5C4)nc3)cccc12 [Example 1312, 5-(5-(((1-aminoisoquinolin-5-yl)amino)methyl)pyridin-2-yl)-4,5,6,7-tetrahydropyrazolo[1,5-a]pyrazin-3-ol]
10 to 40 µM	> 40 µM	Cc1n[nH]c2c1CCC2Nc1ccc(CNc2ccc3c(N)ncc(Cl)c3c2)cn1 (stereo not shown) [Example 1118, 4-chloro-6-N-{[6-({3-methyl-1H,4H,5H,6H-cyclopenta[c]pyrazol-6-yl}amino)pyridin-3-yl]methyl}isoquinoline-1,6-diamine]
40 to 100 µM	> 100 µM	CN1CCC(CNc2ccc(CNc3ccc4cncc(Cl)c4c3)cn2)CC1 [Example 1188, 4-chloro-N-((6-(((1-methylpiperidin-4-yl)methyl)amino)pyridin-3-yl)methyl)isoquinolin-6-amine]
10 to 40 µM	10 to 40 µM	CN1CCC(OCc2ccc(CNc3ccc4cc(N)ncc4c3)cc2)CC1 [Example 2188, 7-N-[(4-{[(1-methylpiperidin-4-yl)oxy]methyl}phenyl)methyl]isoquinoline-3,7-diamine]
3 to 10 µM	> 40 µM	CN1CCC(COc2cc(CNc3ccc(F)c4c(N)nccc34)ccn2)CC1 [Example 4469, 8-fluoro-N5-((2-((1-methylpiperidin-4-yl)methoxy)pyridin-4-yl)methyl)isoquinoline-1,5-diamine]
10 to 40 µM	> 40 µM	CN1CCN(c2cc(CNc3cccc4c(N)nccc34)ccn2)CC1 [Example 4426, 5-N-{[2-(4-methylpiperazin-1-yl)pyridin-4-yl]methyl}isoquinoline-1,5-diamine]
10 to 40 µM	> 40 µM	CN1CCC(CNc2ccc(CNc3cc(C#N)cc4[nH]ccc34)cn2)CC1 [Example 1256]
10 to 40 µM	> 40 µM	Nc1ncc(Cl)c2cc(NCc3ccnc(N4CCn5ccnc5C4)c3)ccc12 [Example 5437, 4-chloro-N6-((2-(5,6-dihydroimidazo[1,2-a]pyrazin-7(8H)-yl)pyridin-4-yl)methyl)isoquinoline-1,6-diamine]
3 to 10 µM	> 40 µM	CC(C)(O)c1cn2c(n1)CN(c1ccc(CNc3cccc4c(N)nccc34)cn1)CC2 [Example 1163, 2-(7-(5-(((1-aminoisoquinolin-5-yl)amino)methyl)pyridin-2-yl)-5,6,7,8-tetrahydroimidazo[1,2-a]pyrazin-2-yl)propan-2-ol]
